Source: publication PMC8473062, “Stability and Safety of Inhibitor Cystine Knot Peptide, GTx1-15, from the Tarantula Spider Grammostola rosea” (Toxins, 2021)
Like-named read-outs stand apart in the source and are kept apart here.

Experiments:
[1] = tested on: THP-1 cells; test: Antigenicity assay (CD80, CD86, CD54 expression by real-time PCR); details: positive control 4 μg/mL, 24 h exposure, RT-PCR, one range for the three genes
Procedure: THP-1 cells were cultured as described above. For antigenicity assays, 2.4 × 10^6 THP-1 cells were inoculated into single wells of a 12-well plate with 1.2 mL RPMI-1640 medium. […] As a negative control, RPMI-1640 was added. After a 24-h incubation, THP-1 cells were collected via centrifugation at 1000× g for 5 min, and then total RNA was extracted from cells using an RNeasy Mini Kit (QIAGEN, Hilden, Germany) according to the manufacturer’s instructions. Total RNA was treated with DNase (QIAGEN) for 10 min to digest contaminating genomic DNA and purified by an RNeasy MinElute Cleanup Kit (QIAGEN). Complementary DNA was synthesized with PrimeScript Reverse Transcriptase (Takara Bio) with an oligo (dT)12-18 primer (Invitrogen, Waltham, USA), 10 mM each dNTP mixture (Promega, Madison, USA), and RNase Inhibitor (Takara Bio). Real-time PCR mixtures were prepared with SYBR Premix Ex Taq (Takara Bio) according to the manufacturer’s instructions. […] Primers for real-time PCR were designed using Roche ProbeFinder version 2.45 (http://qpcr.probefinder.com/roche3.html. This site is stopped at the end of 2020).

[2] = Protein thermal shift assay; assay type: physicochemical; details: Protein Thermal Shift kit, heated 25 to 99 °C at 1 °C/min
Procedure: The protein thermal shift assay was conducted with the StepOne Real-Time PCR System (Thermo Fisher Scientific) using the Protein Thermal Shift Assay Kit according to the manufacturer’s instructions with Protein Thermal Shift Software version 1. The protein melt reaction mix was added to the wells of a 48-well PCR plate. The plate was heated from 25 to 99 °C with a heating rate of 1 °C/min. The software allows the user to calculate a melting temperature (Tm) from their melt curve data using the Boltzmann equation (Tm B).

[3] = cited from earlier work; for degradation after thermal incubation: 24 h
Procedure: Cyclotides are cystine-knotted peptides in which the N- and C-termini are cyclized. Kalata B1 is a well-known cyclotide that consists of 29 amino acids and is not degraded after heating to temperatures approaching boiling. The insecticidal spider toxin ω-hexatoxin-Hv1a is an ICK peptide whose thermal stability has been investigated. After incubating it for 24 h at 50 °C, 75 °C or 95 °C, ω-hexatoxin-Hv1a is degraded about 20%, 30% and 90%, respectively. In contrast, GTx1-15 degraded only 30% after a 24-h incubation at 95 °C.

[4] = cited from earlier work
Procedure: We previously reported that ProTxII (an ICK peptide) remains in circulation for over 4 h. Similar to those results, GTx1-15 retains an effective concentration in circulation for over several hours.

## O=[N+]([O-])c1ccc(Cl)c([N+](=O)[O-])c1 [DNCB, 2,4-Dinitrochlorobenzene]
[1]
  increase in expression of CD80, CD86 and CD54 genes: 20–70 times

## GsMTx4
[2]
  Tm B (Boltzmann melting temperature): 95.26 ± 0.10 °C

## Kalata B1: well-known cyclotide of 29 amino acids; cystine-knotted peptide with N- and C-termini cyclized (cyclo(GLPVCGETCVGGTCNTPGCTCSWPVCTRN); disulfide (positions not given here); also: cystine-knotted (disulfide places not given here); UniProt P56254 89-117, looked up)
[3]; heating to temperatures approaching boiling
  degradation after heating: not degraded

## ProTxI: ICK peptide compared in the protein thermal shift assay (ECRYWLGGCSAGQTCCKHLVCSRRHGWCVWDGTFS; UniProt P83480 1-35, looked up)
[2]
  Tm B (Boltzmann melting temperature): 93.23 ± 0.12 °C

## ProTxII: ICK peptide compared in the protein thermal shift assay
[4]
  time remaining in circulation: over 4 h
[2]
  Tm B (Boltzmann melting temperature): 93.95 ± 0.12 °C

## ω-hexatoxin-Hv1a
[3]; 50 °C
  degradation after thermal incubation: about 20%
[3]; 75 °C
  degradation after thermal incubation: ~30%
[3]; 95 °C
  degradation after thermal incubation: ~90%
